Earlier results in US20210198628A1, “BASAL MEDIA FOR GROWING NK-92 CELLS” (NantKwest, Inc., priority 2018, published 2021).

Conditions: in vivo

CC[C@H](C(=O)N1CCCC[C@H]1C(=O)O[C@H](CCc1ccc(OC)c(OC)c1)c1cccc(OCC(=O)NCCNC(=O)COc2cccc([C@@H](CCc3ccc(OC)c(OC)c3)OC(=O)[C@@H]3CCCCN3C(=O)[C@@H](CC)c3cc(OC)c(OC)c(OC)c3)c2)c1)c1cc(OC)c(OC)c(OC)c1 [AP1903]
tolerability in clinical studies: well tolerated
